We go through 15 compounds from US8546429B2, “1,2,3-trisubstituted aryl and heteroaryl derivatives as modulators of metabolism and the prophylaxis and treatment of disorders related thereto” (Arena Pharmaceuticals, Inc., priority 2003, dated 2013).

In general, EC50 refers to the concentration giving half of the maximal effect.

One assay concerns the target T1, RUP3 (Homo sapiens, UniProt Q8TDV5).
T1 construct: expressed in transfected cells; host or cells: melanophores, electroporated
T1 sequence (Q8TDV5 1-335): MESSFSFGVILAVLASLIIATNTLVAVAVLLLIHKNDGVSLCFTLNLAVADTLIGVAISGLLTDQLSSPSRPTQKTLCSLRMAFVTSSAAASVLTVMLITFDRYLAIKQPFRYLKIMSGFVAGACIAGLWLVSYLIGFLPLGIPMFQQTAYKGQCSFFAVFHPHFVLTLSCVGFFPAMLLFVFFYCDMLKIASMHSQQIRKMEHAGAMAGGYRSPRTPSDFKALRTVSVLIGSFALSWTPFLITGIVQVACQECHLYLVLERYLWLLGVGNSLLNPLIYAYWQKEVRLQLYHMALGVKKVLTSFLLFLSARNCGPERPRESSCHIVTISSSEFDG
Description: RUP3 dose responses in melanophores. As to conditions: melanophores transfected with RUP3 expression vector; Table 8. Type of assay: cell-based. Here is the method: Melanophores are maintained in culture as reported by Potenza, M. N. and Lerner, M. R., in Pigment Cell Research, Vol. 5, 372-378, 1992 and transfected with the RUP3 expression vector (pCMV) using electroporation. Following electroporation, the transfected cells are plated into 96 well plates for the assay. The cells are then allowed to grow for 48 hours in order to both recover from the electroporation procedure and attain maximal receptor expression levels.
On the assay day, the growth medium on the cells is replaced with serum-free buffer containing 10 nM melatonin. The melatonin acts via an endogenous Gi-coupled GPCR in the melanophores to lower intracellular cAMP levels. In response to lowered cAMP levels, the melanophores translocate their pigment to the center of the cell. The net effect of this is a significant decrease in the absorbance reading of the cell monolayer in the well, measured at […].
After a 1-hour incubation in melatonin, the cells become completely pigment-aggregated. At this point a baseline absorbance reading is collected. Serial dilutions of test compounds are then added to the plate and compounds that stimulate RUP3 produce increases in intracellular cAMP levels. In response to these increased cAMP levels, the melanophores translocate their pigment back into the cell periphery. After one hour, stimulated cells are fully pigment-dispersed. The cell monolayer in the dispersed state absorbs much more light in the 600-650 nm range. The measured increase in absorbance compared to the baseline reading allows one to quantitate the degree of receptor stimulation and plot a dose-response curve.
The compounds in the above examples were screened using the melanophore assay.
For `Cc1nc(C)c(S(=O)(=O)N2CCC(Oc3ncnc(Nc4ccc(S(C)(=O)=O)cc4)c3[N+](=O)[O-])CC2)s1` [Compound A32, {6-[1-(2,4-Dimethyl-thiazole-5-sulfonyl)-piperidin-4-yloxy]-5-nitro-pyrimidin-4-yl}-(4-methanesulfonyl-phenyl)-amine], the EC50 was found to be 43.5 nM.
`CC(C)(C)C(=O)N1CCC(Nc2ncnc(Nc3ccc(S(C)(=O)=O)cc3)c2[N+](=O)[O-])CC1` [Compound B4, 1-{4-[6-(4-Methanesulfonyl-phenylamino)-5-nitro-pyrimidin-4-ylamino]-piperidin-1-yl}-2,2-dimethyl-propan-1-one] yielded an EC50 of 300 nM.
In the case of `Cc1c(Oc2ccc(CCn3ccnc3)cc2F)ncnc1OC1CCN(C(=O)OC(C)C)CC1` [Compound C168, 4-{6-[2-Fluoro-4-(2-imidazol-1-yl-ethyl)-phenoxy]-5-methyl-pyrimidin-4-yloxy}-piperidine-1-carboxylic acid isopropyl ester], the EC50 was found to be 28.3 nM.
Compound `CS(=O)(=O)c1ccc(Nc2ncnc(OC3CCN(C(=O)c4cccnc4)CC3)c2[N+](=O)[O-])cc1` [Compound A24, {4-[6-(4-Methanesulfonyl-phenylamino)-5-nitro-pyrimidin-4-yloxy]-piperidin-1-yl}-pyridin-3-yl-methanone] returned an EC50 of 185 nM.
Same read-out and setting: then `Cc1nc(Cl)ccc1Nc1ncnc(OC2CCN(C(=O)OC(C)C)CC2)c1C` [Compound A90, 4-[6-(6-Chloro-2-methyl-pyridin-3-ylamino)-5-methyl-pyrimidin-4-yloxy]-piperidine-1-carboxylic acid isopropyl ester], with 52 nM; and `CC(C)(C)OC(=O)N1CCC(CCOc2ncnc(Nc3ccc(S(C)(=O)=O)cc3)c2[N+](=O)[O-])CC1` [Compound A14, 4-{2-[6-(4-Methanesulfonyl-phenylamino)-5-nitro-pyrimidin-4-yloxy]-ethyl}-piperidine-1-carboxylic acid tert-butyl ester], with 242 nM.
On the same count and under the same terms, then `CS(=O)(=O)c1ccc(Nc2ncnc(OC3CCN(S(C)(=O)=O)CC3)c2[N+](=O)[O-])cc1` [Compound A27, (4-Methanesulfonyl-phenyl)-[6-(1-methanesulfonyl-piperidin-4-yloxy)-5-nitro-pyrimidin-4-yl]-amine], with 76.5 nM.
Still for that read-out and setting: then `CC(C)(C)C(=O)CN1CCC(Oc2ncnc(Nc3ccc(S(C)(=O)=O)cc3)c2[N+](=O)[O-])CC1` [Compound A11, 1-{4-[6-(4-Methanesulfonyl-phenylamino)-5-nitro-pyrimidin-4-yloxy]-piperidin-1-yl}-3,3-dimethyl-butan-2-one], with 86 nM; and `CC(C)OC(=O)N1CCC(Oc2ncnc(Nc3ccc(S(C)(=O)=O)cc3)c2C#N)CC1` [Compound A39, 4-[5-Cyano-6-(4-methanesulfonyl-phenylamino)-pyrimidin-4-yloxy]-piperidine-1-carboxylic acid isopropyl ester], with 16.9 nM.

The next assay relates to Male Sprague Dawley rats. Description: Oral glucose tolerance test (oGTT) in rats. It is filed as in vivo, rat. To be noted: mean of six rats, 10 mg/kg p.o., dextrose 2 g/kg oral challenge. On the procedure: Male Sprague Dawley rats weighing approximately 200 g-250 g were fasted for 15 hours and randomly grouped (n=6) to receive a RUP3 agonist (Compounds A78, A88 or A118) at 3, 10 or 30 mg/kg. Compounds were delivered orally via a gavage needle (p.o., volume 3 ml/kg). At time 0, levels of blood glucose were assessed using a glucometer (Elite XL, Bayer), and rats were administered either vehicle (20% hydroxypropyl-beta-cyclodextrin) or test compound. Thirty minutes after administration of test compound, levels of blood glucose were again assessed, and rats were administered dextrose orally at a dose of 2 g/kg. Blood glucose measurements were then taken 30 min, 60 min, and 120 min after this time.
For `CC(C)OC(=O)N1CCC(Oc2ncnc(Nc3ccc(S(C)(=O)=O)cc3F)c2C#N)CC1` [Compound A78, 4-[5-Cyano-6-(2-fluoro-4-methanesulfonyl-phenylamino)-pyrimidin-4-yloxy]-piperidine-1-carboxylic acid isopropyl ester], the “% inhibition of glucose excursion” value is 39%, (10).

The same assay, now with this note: mean of six rats, 30 mg/kg p.o., dextrose 2 g/kg oral challenge.
Consider `Cc1c(Nc2cc(F)c(C#N)cc2F)ncnc1OC1CCN(C(=O)OC(C)C)CC1` [Compound A88, 4-[6-(4-Cyano-2,5-difluoro-phenylamino)-5-methyl-pyrimidin-4-yloxy]-piperidine-1-carboxylic acid isopropyl ester], for which the “% inhibition of glucose excursion” value is 38%, (30).
In the case of `Cc1c(OC2CCN(C(=O)OC(C)C)CC2)ccnc1Nc1ccc(S(C)(=O)=O)cc1F` [Compound A118, 4-[2-(2-Fluoro-4-methanesulfonyl-phenylamino)-3-methyl-pyridin-4-yloxy]-piperidine-1-carboxylic acid isopropyl ester], the “% inhibition of glucose excursion” value is 43%, (30).

The assay is the same for the next values; noted with them: rats, p.o., oGTT.
Take `Cc1c(Nc2cc(F)c(C#N)cc2F)ncnc1OC1CCN(C(=O)OC(C)C)CC1` [Compound A88, 4-[6-(4-Cyano-2,5-difluoro-phenylamino)-5-methyl-pyrimidin-4-yloxy]-piperidine-1-carboxylic acid isopropyl ester]: the “effect on blood glucose after challenge with glucose” value (shortened to “effect on blood glucose”) is recorded as “lowered blood glucose”.
For `CC(C)OC(=O)N1CCC(Oc2ncnc(Nc3ccc(S(C)(=O)=O)cc3F)c2C#N)CC1` [Compound A78, 4-[5-Cyano-6-(2-fluoro-4-methanesulfonyl-phenylamino)-pyrimidin-4-yloxy]-piperidine-1-carboxylic acid isopropyl ester], the “effect on blood glucose” value is on record as “lowered blood glucose”.
With `Cc1c(OC2CCN(C(=O)OC(C)C)CC2)ccnc1Nc1ccc(S(C)(=O)=O)cc1F` [Compound A118, 4-[2-(2-Fluoro-4-methanesulfonyl-phenylamino)-3-methyl-pyridin-4-yloxy]-piperidine-1-carboxylic acid isopropyl ester], the “effect on blood glucose” value is given as “lowered blood glucose”.

A further assay addresses T2, RUP3 (Mesocricetus auratus, UniProt A0A1U8CD06).
T2 construct: host or cells: HIT-T15 hamster insulin-producing cells
T2 sequence (A0A1U8CD06 1-334): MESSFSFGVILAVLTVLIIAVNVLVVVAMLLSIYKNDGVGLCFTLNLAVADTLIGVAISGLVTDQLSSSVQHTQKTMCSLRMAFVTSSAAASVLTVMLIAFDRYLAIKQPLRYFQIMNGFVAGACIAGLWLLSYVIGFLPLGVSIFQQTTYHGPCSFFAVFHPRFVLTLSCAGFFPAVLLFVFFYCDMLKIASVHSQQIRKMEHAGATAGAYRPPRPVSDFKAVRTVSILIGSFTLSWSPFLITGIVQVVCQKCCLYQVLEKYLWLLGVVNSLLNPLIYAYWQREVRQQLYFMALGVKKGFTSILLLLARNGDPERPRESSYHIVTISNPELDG
Description: Stimulation of cAMP in HIT-T15 cells (cAMP Flashplate Assay). As to conditions: Table 6. It is filed as cell-based, hamster. On the procedure: HIT-T15 (ATCC CRL#1777) is an immortalized hamster insulin-producing cell line. These cells express RUP3 and therefore can be used to assess the ability of RUP3 ligands to stimulate or inhibit cAMP accumulation via its endogenously expressed receptor. In this assay, cells are grown to 80% confluence and then distributed into a 96-well Flashplate (50,000 cells/well) for detection of cAMP via a “cAMP Flashplate Assay” (NEN, Cat #SMP004). Briefly, cells are placed into anti-cAMP antibody-coated wells that contain either vehicle, the test ligand(s) at a concentration of interest, or 1 uM forskolin. The latter is a direct activator of adenylyl cyclase and serves as a positive control for stimulation of cAMP in HIT-T15 cells. All conditions are tested in triplicate. After a 1 hour incubation to allow for stimulation of cAMP, a Detection Mix containing ^125I-cAMP is added to each well and the plate is allowed to incubate for another 1 hour. The wells are then aspirated to remove unbound ^125I-cAMP. Bound ^125I-cAMP is detected using a Wallac Microbeta Counter. The amount of cAMP in each sample is determined by comparison to a standard curve, obtained by placing known concentrations of cAMP in some wells on the plate.
A number of the compounds disclosed herein were screened using the above described assay.
In turn, `CC(C)(C)OC(=O)N1CCC(Oc2ncnc(Nc3ccc(S(C)(=O)=O)cc3)c2C#N)CC1` [Compound A35, 4-[5-Cyano-6-(4-methanesulfonyl-phenylamino)-pyrimidin-4-yloxy]-piperidine-1-carboxylic acid tert-butyl ester] had an EC50 of 59 nM.
Still for that read-out and setting: next, `CC(C)(C)OC(=O)N1CCC(Oc2ncnc(Nc3ccc(S(C)(=O)=O)cc3F)c2[N+](=O)[O-])CC1` [Compound A34, 4-[6-(2-Fluoro-4-methanesulfonyl-phenylamino)-5-nitro-pyrimidin-4-yloxy]-piperidine-1-carboxylic acid tert-butyl ester]: 27 nM; `CC(C)(C)OC(=O)N1CCC(Oc2ncnc(Nc3ccc(S(C)(=O)=O)cc3)c2[N+](=O)[O-])CC1` [Compound A1, 4-[6-(4-Methanesulfonyl-phenylamino)-5-nitro-pyrimidin-4-yloxy]-piperidine-1-carboxylic acid tert-butyl ester]: 20 nM.
